Patent US11547697B2, “Heterocyclic compounds and uses thereof” (MILLENNIUM PHARMACEUTICALS, INC., priority 2009, dated 2023)
Read-outs that look alike come from different tables or passages of the source.

How the values were obtained:
p110α/p85α = p110α/p85α (Homo sapiens (Human), UniProt P42336); assay: PI 3-Kinase (human) HTRF assay, p110α/p85α; type: biochemical
p110γ = p110γ (Homo sapiens (Human), UniProt P48736); assay: PI 3-Kinase (human) HTRF assay, p110γ; type: biochemical
p110β/p85α = p110β/p85α (Homo sapiens (Human), UniProt P42338); assay: PI 3-Kinase (human) HTRF assay, p110β/p85α; type: biochemical
Sequence of p110β/p85α (P42338 whole entry): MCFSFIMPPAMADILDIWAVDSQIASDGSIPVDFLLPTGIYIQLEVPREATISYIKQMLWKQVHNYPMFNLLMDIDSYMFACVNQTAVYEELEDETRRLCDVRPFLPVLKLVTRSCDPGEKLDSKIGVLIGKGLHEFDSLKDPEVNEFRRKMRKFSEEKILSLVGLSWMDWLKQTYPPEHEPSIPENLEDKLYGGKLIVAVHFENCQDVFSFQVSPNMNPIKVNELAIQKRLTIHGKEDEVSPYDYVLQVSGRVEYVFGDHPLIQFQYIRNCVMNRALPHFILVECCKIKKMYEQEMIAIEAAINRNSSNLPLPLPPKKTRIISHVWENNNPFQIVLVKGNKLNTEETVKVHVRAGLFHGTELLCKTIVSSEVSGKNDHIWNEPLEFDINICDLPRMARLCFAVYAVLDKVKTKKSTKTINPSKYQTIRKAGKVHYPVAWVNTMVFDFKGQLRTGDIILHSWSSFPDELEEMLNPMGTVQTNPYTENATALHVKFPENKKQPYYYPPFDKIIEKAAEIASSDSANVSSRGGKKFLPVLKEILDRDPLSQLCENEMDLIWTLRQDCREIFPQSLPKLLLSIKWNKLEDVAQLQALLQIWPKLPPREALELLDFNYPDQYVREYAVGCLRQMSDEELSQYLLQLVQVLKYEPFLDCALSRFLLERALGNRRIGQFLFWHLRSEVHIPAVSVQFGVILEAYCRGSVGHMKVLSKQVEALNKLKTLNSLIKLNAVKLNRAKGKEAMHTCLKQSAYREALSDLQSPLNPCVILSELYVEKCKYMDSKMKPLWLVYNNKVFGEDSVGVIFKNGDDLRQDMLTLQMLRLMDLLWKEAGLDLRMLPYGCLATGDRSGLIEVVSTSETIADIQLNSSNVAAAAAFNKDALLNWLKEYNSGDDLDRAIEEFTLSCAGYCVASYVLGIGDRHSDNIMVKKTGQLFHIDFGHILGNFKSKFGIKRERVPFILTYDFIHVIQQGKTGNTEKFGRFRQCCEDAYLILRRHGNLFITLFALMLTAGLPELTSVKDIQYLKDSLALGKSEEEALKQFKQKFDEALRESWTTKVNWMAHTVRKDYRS
Sequence of p110β/p85α (P27986 whole entry partner): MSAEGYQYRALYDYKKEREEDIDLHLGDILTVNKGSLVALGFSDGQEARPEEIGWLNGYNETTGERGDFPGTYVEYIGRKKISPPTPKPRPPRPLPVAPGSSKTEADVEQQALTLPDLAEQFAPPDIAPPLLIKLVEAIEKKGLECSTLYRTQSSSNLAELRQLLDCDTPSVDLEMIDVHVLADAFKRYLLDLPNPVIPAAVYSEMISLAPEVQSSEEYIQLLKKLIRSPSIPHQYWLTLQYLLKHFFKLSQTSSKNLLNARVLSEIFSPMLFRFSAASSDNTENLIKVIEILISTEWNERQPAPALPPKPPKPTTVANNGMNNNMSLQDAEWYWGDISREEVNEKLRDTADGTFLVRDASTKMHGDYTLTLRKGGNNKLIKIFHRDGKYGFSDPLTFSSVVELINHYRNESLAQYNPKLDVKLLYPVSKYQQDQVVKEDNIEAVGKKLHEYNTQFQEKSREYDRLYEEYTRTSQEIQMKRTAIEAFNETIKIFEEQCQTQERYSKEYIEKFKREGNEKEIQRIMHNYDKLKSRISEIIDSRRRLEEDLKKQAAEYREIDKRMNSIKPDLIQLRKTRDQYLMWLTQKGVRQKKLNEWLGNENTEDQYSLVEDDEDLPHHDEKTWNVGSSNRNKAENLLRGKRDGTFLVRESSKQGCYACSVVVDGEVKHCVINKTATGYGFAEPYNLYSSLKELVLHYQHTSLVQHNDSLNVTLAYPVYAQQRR

p110δ/p85α = p110δ/p85α (Homo sapiens (Human), UniProt O00329); assay: PI 3-Kinase (human) HTRF assay, p110δ/p85α; type: biochemical
Sequence of p110δ/p85α (O00329 whole entry): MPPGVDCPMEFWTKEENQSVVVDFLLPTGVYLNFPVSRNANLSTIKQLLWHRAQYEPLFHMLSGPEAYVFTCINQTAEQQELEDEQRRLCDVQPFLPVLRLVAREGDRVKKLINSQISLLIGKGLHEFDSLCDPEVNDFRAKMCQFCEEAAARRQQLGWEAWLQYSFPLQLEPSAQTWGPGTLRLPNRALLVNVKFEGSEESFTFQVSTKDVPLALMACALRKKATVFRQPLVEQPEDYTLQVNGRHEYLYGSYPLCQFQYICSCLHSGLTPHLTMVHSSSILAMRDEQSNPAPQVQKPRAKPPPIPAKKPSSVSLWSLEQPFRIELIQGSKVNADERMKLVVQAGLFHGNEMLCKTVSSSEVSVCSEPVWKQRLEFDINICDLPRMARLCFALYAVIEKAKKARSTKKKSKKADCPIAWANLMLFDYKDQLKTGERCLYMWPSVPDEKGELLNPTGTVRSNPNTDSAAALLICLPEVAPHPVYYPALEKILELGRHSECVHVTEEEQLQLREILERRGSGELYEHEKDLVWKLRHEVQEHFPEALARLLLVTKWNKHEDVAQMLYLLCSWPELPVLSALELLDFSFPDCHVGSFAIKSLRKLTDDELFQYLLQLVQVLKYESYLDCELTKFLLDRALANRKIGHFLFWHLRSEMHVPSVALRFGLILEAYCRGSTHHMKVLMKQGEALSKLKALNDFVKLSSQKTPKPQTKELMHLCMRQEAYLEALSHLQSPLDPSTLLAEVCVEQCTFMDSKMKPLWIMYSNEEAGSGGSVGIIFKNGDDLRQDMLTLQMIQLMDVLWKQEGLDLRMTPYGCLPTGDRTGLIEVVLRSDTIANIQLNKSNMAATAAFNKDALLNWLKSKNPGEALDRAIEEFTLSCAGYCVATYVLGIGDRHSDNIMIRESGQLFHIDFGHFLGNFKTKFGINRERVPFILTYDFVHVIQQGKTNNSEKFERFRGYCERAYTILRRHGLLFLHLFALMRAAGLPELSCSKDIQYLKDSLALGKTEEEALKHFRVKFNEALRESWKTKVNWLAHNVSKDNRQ
Sequence of p110δ/p85α (P27986 whole entry partner): as the sequence (P27986 whole entry partner) above

[1] = system: tumor cells with a PI3Kα mutation (e.g., MDA-MB-361 and T47D); assay: Proliferation of tumor cells with PI3Kα mutation; type: cell-based; details: Homo sapiens, PC3; read-out: PC3 proliferation In Vitro IC50

Sequence of p110α/p85α (P42336 whole entry): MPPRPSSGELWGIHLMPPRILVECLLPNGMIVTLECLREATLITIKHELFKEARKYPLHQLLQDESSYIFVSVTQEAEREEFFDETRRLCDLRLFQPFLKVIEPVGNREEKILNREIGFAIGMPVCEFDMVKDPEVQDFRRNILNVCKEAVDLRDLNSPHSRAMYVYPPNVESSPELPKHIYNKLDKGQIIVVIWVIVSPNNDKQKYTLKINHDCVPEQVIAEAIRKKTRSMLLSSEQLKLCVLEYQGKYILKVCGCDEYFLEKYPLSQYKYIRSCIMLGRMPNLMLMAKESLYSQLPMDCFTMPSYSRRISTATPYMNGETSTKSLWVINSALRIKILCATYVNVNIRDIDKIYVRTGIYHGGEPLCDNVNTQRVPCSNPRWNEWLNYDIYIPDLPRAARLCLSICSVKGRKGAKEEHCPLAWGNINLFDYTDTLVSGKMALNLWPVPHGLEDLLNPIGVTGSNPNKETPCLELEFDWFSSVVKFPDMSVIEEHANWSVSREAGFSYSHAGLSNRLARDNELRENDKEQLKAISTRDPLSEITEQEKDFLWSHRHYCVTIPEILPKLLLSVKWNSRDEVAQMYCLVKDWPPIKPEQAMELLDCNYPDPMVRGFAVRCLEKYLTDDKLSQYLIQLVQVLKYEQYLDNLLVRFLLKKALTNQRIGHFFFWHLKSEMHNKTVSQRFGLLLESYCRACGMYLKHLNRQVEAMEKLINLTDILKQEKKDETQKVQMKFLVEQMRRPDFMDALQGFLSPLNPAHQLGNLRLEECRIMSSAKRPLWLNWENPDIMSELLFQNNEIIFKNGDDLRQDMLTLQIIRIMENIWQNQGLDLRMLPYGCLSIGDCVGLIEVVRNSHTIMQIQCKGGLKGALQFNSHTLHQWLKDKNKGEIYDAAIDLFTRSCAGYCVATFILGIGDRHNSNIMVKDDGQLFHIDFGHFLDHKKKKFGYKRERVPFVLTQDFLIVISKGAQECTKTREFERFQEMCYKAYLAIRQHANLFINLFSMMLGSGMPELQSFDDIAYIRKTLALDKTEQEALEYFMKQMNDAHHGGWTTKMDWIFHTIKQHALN
Sequence of p110α/p85α (P27986 whole entry partner): as the sequence (P27986 whole entry partner) above
Sequence of p110γ (P48736 whole entry): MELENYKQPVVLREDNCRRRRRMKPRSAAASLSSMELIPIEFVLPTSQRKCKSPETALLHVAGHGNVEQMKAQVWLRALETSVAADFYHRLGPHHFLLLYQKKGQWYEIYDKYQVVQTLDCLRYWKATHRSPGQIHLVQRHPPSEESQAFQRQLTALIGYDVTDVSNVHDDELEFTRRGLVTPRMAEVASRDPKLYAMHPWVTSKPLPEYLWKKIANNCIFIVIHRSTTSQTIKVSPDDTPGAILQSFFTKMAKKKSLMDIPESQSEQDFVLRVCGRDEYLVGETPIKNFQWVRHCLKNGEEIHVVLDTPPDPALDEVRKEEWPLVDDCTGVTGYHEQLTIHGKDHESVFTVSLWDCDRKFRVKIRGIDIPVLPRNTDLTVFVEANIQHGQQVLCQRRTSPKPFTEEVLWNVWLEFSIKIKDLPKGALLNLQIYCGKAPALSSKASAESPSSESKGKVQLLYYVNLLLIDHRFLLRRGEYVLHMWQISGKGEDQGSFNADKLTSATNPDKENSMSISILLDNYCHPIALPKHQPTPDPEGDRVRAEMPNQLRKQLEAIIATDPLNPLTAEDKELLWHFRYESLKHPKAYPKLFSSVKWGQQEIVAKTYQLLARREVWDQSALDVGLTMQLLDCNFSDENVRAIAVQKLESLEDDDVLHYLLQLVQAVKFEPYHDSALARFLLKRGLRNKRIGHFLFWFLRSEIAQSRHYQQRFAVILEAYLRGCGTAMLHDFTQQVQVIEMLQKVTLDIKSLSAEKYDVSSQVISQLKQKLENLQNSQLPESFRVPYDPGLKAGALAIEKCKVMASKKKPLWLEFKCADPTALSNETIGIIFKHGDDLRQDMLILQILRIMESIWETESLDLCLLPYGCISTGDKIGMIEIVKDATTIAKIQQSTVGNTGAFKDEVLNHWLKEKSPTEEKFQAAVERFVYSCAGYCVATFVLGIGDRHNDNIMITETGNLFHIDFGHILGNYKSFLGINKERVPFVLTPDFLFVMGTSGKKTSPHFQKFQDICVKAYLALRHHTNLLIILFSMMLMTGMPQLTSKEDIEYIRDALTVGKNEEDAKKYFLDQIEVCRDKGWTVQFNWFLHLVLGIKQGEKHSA

IC50 (p110α/p85α; in vitro, read-out: PI3K α IC50) [nM] | IC50 (p110γ; in vitro, read-out: PI3K γ IC50) [nM] | IC50 (p110β/p85α; in vitro, read-out: PI3K β IC50) [nM] | IC50 (p110δ/p85α; in vitro, read-out: PI3K δ IC50) [nM] | IC50 (p110α/p85α; read-out: PI3K α In Vitro IC50) [nM] | IC50 (p110γ; read-out: PI3K γ In Vitro IC50) [nM] | IC50 (p110β/p85α; read-out: PI3K β In Vitro IC50) [nM] | IC50 (p110δ/p85α; read-out: PI3K δ In Vitro IC50) [nM] | IC50 [1] [nM] | SMILES
 |  |  |  | < 1000 | < 10000 | < 10000 | < 10000 |  | Nc1nc2cc(-c3ccn4ncc(C(=O)N5CCC(N6CCOCC6)CC5)c4c3)ccc2o1 [compound 398]
 |  |  |  | < 100 | < 1000 | < 1000 | < 10000 |  | Nc1nc2cc(-c3ccc4ncc(N5CCNC(C(F)F)C5)nc4c3)ccc2o1 (stereo not drawn) [compound 413]
 |  |  |  | < 100 | < 1000 | < 10000 | < 10000 |  | COc1ncc(-c2ccc3ncc(C(=O)N4CCOCC4)n3c2)cc1NS(C)(=O)=O [compound 416]
 |  |  |  | < 100 | < 100 | < 10000 | < 1000 |  | COc1ncc(-c2ccc3ncc(C(=O)N4CCOCC4)n3c2)cc1NS(=O)(=O)c1ccccc1F [compound 422]
 |  |  |  | < 100 | < 100 | < 100 | < 100 |  | CC(=O)Nc1nc2ccc(-c3cc(F)c4oc(N)nc4c3)cc2s1 [compound 434]
 |  |  |  | < 100 | < 100 | < 100 | < 1000 |  | Nc1nc2cc(-c3ccc4nc(N)sc4c3)cc(F)c2o1 [compound 436]
 |  |  |  | < 100 | < 1000 |  |  | < 10000 | CO[C@@H]1CCN(C(=O)c2cnc3ccc(-c4ccc5oc(N)nc5c4)cn23)C1 [compound 464]
 |  |  |  | < 100 | < 100 |  |  | < 10000 | Nc1nc2cc(-c3ccc4ncc(C(=O)N5CCC(F)(F)C5)n4c3)ccc2o1 [compound 471]
 |  |  |  | < 100 | < 10000 | < 10000 |  | < 10000 | C[C@H]1COCCN1C(=O)c1cnc2ccc(-c3ccc4oc(N)nc4c3)cn12 [compound 483]
 |  |  |  | < 100 | < 1000 | < 100 | < 100 |  | CN1CCC(n2cnc3ccc(-c4cnc(Cl)c(NS(=O)(=O)c5ccccc5)c4)cc3c2=O)CC1 [compound 527]

The next lines start with the compound.

SMILES | IC50 (p110α/p85α; in vitro, read-out: PI3K α IC50) [nM] | IC50 (p110γ; in vitro, read-out: PI3K γ IC50) [nM] | IC50 (p110β/p85α; in vitro, read-out: PI3K β IC50) [nM] | IC50 (p110δ/p85α; in vitro, read-out: PI3K δ IC50) [nM] | IC50 (p110α/p85α; read-out: PI3K α In Vitro IC50) [nM] | IC50 (p110γ; read-out: PI3K γ In Vitro IC50) [nM] | IC50 (p110β/p85α; read-out: PI3K β In Vitro IC50) [nM] | IC50 (p110δ/p85α; read-out: PI3K δ In Vitro IC50) [nM] | IC50 [1] [nM]
Nc1nc2cc(-c3ccc4ncc(N5CCn6cccc6C5)nc4c3)ccc2o1 [compound 394] | < 100 | < 100 | < 100 | < 1000 |  |  |  |  | 
Cc1cc(-c2ccc3oc(N)nc3c2)cc2c(-c3ccncc3)cnn12 [compound 397] |  |  |  |  | < 100 | < 100 | < 1000 | < 1000 | 
CC(Oc1nc(-c2ccc3ncc(C(=O)N4CCOCC4)n3c2)cnc1N)C(F)(F)F (stereo not drawn) [compound 411] |  |  |  |  | < 100 | < 1000 | < 10000 | < 10000 | 
COc1ncc(-c2ccc3ncc(C(=O)N4CCOCC4)n3c2)cc1NS(=O)(=O)c1ccc(F)cc1 [compound 421] |  |  |  |  | < 100 | < 100 | < 1000 | < 100 | 
COc1ncc(-c2ccc3ncc(C(=O)N4CCOCC4)n3c2)cc1NS(=O)(=O)c1cccc(F)c1 [compound 423] |  |  |  |  | < 100 | < 100 | < 1000 | < 100 | 
Nc1nc2ccc(-c3cc(F)c4oc(N)nc4c3)cc2o1 [compound 433] |  |  |  |  | < 1000 | < 100 | < 1000 | < 10000 | 
O=C(c1cnc2ccc(-c3ccc(Cl)c(NS(=O)(=O)c4ccc(F)cc4F)c3)cn12)N1CCOCC1 [compound 461] |  |  |  |  | < 1000 | < 10000 | < 10000 | < 10000 | 
CO[C@H]1CCN(C(=O)c2cnc3ccc(-c4ccc5oc(N)nc5c4)cn23)C1 [compound 463] |  |  |  |  | < 100 | < 1000 | < 10000 | < 10000 | 
Nc1nc2cc(-c3ccc4ncc(C(=O)N5CC[C@@H](N6CCOCC6)C5)n4c3)ccc2o1 [compound 466] |  |  |  |  | < 1000 | < 1000 | < 10000 | < 10000 | 
Nc1nc2cc(-c3ccc4ncc(C(=O)N5CC(F)(F)C5)n4c3)ccc2o1 [compound 473] |  |  |  |  | < 100 | < 100 |  |  | < 1000
C[C@@H]1CCCN1C(=O)c1cnc2ccc(-c3ccc4oc(N)nc4c3)cn12 [compound 481] |  |  |  |  | < 100 | < 1000 | < 10000 | < 10000 | 
CC(C)N1CCC(n2cnc3ccc(-c4cncc(NS(=O)(=O)c5ccc(F)cc5F)c4)cc3c2=O)CC1 [compound 519] |  |  |  |  | < 1000 | < 1000 | < 10000 | < 10000 | 
CC(C)N1CCC(n2cnc3ccc(-c4cnc(Cl)c(NS(=O)(=O)c5ccccc5)c4)cc3c2=O)CC1 [compound 521] |  |  |  |  | < 100 | < 1000 | < 100 | < 100 | 
COc1ncc(-c2ccc3ncn(C4CCN(C)CC4)c(=O)c3c2)cc1NS(C)(=O)=O [compound 525] |  |  |  |  | < 100 | < 10000 | < 1000 | < 100 | 
